Assay results taken from patent US10201558B2, “Compositions of selenoorganic compounds and methods of use thereof” (Alltech, Inc., priority 2014, dated 2019).
“Also recorded” adds a separate entry of the source.

Key:
Assay type in all cases: cell-based, human
PSEN1 = test: QRT-PCR of PSEN1 mRNA in IMR-32 cells
Procedure: (§1) Human IMR-32 cells were seeded on gelatinized 6-well (6.5×10^5 cells/well) or 24-well (1.3×10^5 cells/well) plates. Cells were treated with control (0 ppb) or various compounds for 6 hours or 24 hours. Total RNA from these cells was isolated using Trizol (Invitrogen) according to the manufacturer's protocol, and then incubated with DNase I to remove any potential contaminated genomic DNA. Then RNA samples were subjected to real-time PCR analysis using the Applied-Bioscience's RT kit and predesigned Taqman probes (Invitrogen), as described previously (Lan et al EMBO J 2003). The mRNA levels of UCP1, UCP2, UCP3, SLC25A27 (UCP4), SLC25A14 (UCP5), PSEN1, Nicastrin, GSK3B, MAPK11-14, PPARG, APOE, RCAN1, RCAN1.1, G6PC, INSR, IGF1R and FOXO4 were measured. Three to six samples were analyzed in each treatment group. Data were normalized by Actin B (ACTB) or Glyceraldehyde Phosphate Dehydrogenase (GAPDH) mRNA levels in each sample and are presented as mean±SEM of 3-6 samples.
(§2) RNA samples were extracted, purified, and subjected to real-time PCR analysis using Applied-Bioscience's RT kit and Taqman probes (Invitrogen) as described previously in Example 4. Protein samples were also prepared from cell lysates and western blot analysis was performed as previously described in Example 4. Data are presented as mean±SEM of 3 protein samples and 4 RNA samples per group. The relative mRNA and protein expression levels of PSEN1 and NICASTRIN, were measured. All primary antibodies were purchased from Cell Signaling Inc., Beverly, Mass.

NICASTRIN = test: QRT-PCR of NICASTRIN mRNA in IMR-32 cells (normal, control KD, FOXO4 KD)
Procedure: IMR-32 cells were cultured on 12-well plates for 24 hours and then incubated with FOXO4 siRNA lentiviruses (SC-29650V, Santa Cruz) or control siRNA lentiviruses (sc-108080, Santa Cruz) in the presence of Polybrene (5 μg/ml, Santa Cruz) for 24 hours according to the manufacturer's protocol. These lentiviral siRNA-transfected cells were amplified in normal media for 3 days and then incubated with puromycin for 9-14 days to obtain the stable Control KD (stably transfected with the control siRNAs) and FOXO4KD (stably transfected with Foxo4 siRNAs) cells. These control and Foxo4 KD cells were subjected to cell survival, mitochondrial potential and RNA analysis.
as §1, §2
Expression of genes such as Nicastrin and GSK3B (FIGS. 3A, 3C, 3G-3I, 4A, 4F-4H) which are associated with early-onset AD pathogenesis was attenuated by Compound C. […] Therefore, GSK3B and Nicastrin likely are two direct downstream target genes of FOXO4 in neuronal cells in humans.

PSEN2 = PSEN2 expression in IMR-32 cells
[1] = tested on: phosphorylated Tau (pTau S396, pTau S400/T403/S404); test: Western blot of phosphorylated Tau in IMR-32 cells; conditions: 150 ppb, 24 hours
Procedure: (§3) IMR-32 cells were seeded on 6-well plates and then treated with control and various compounds for 6 hours and 24 hours, as described above. After treatments, cells were rinsed with ice-cold PBS and lysed in ice-cold RIPA buffer containing complete proteinase and phosphatase inhibitors (Thermo-Fisher Scientific, Waltham, Mass.) on ice for 30 min Cell lysates were collected using a cell scraper and transfer pipette and then centrifuged at 12000×g for 30 min at 4° C. to remove the DNA pellet and obtain the protein extract. Protein levels in the supernatant of these cell lysates were determined using the Pierce Micro-BCA protein assay kit (Thermo Scientific-Piece Biotechnology, Rockford, Ill.) according to the manufacturer's protocol
(§4) For Western blot analysis, five micrograms of total proteins from control (0 ppb)- and compound(s)-treated cells were subjected to SDS-PAGE gel separation and then transferred to PVDF membranes, as described previously (Reddy, Liu et al. 2008 Science). Membranes were blocked in a phosphate-buffered saline (PBS) containing 5% (w/v) of bovine serum albumin (Sigma, St. Louis, Mo.) and incubated with specific primary antibodies followed by the incubation with HRP-conjugated anti-mouse or anti-rabbit secondary antibodies (1:5000 dilution, Cell Signaling Inc.). All primary antibodies except PGC1a (Abcam, Cambridge, Mass.), G6pc (Santa Cruz, Dallas, Tex.) and Actb (Li-Cor, Lincoln, Nebr.) were purchased from Cell Signaling Inc., Beverly, Mass.
(§5) Positive signals on the membrane blots were detected using Amersham's enhanced chemiluminescence (ECL) Western Blotting Prime Detection reagents (GE healthcare Lifescience, Pittsburgh, Pa.). Images of these luminescence signals on the membrane blots were captured using the LI-COR Odyssey Fc Image system (Lincoln, Nebr.). The same membrane blot was stripped and re-blotted with another antibody as described in the GE WB ECL-prime-detection protocol (GE Healthcare Lifescience, Pittsburgh, Pa.). Protein band densities in the Western blots were determined using the Li—COR Image studio software or NIH ImageJ software, and then normalized by ACTB protein level in each sample. Data are presented as mean±SEM of three samples per each group.
To determine whether selenium Compound C, Compound D or Compound E can potentially contribute to diminished tangle formation in AD, the phosphorylation of two AD biomarkers, pTau S396 (Serine 396) and pTauS400/T403/5404 (Serine 400, Threonine 403, and Serine 404), as well as the Total Tau protein levels was assessed in IMR-32 cells. Phosphorylation of Tau at the indicated amino acid sites has been associated with destabilization of the Tau protein and the eventual formation of tangles. For this purpose, cells were treated with 150 ppb of Compound C, Compound D, or Compound E for 6 hours and 24 hours, and then subjected to Western blot analysis (see FIG. 4A). Mean±SEM, n=3.

p38 = test: Western blot of total p38 protein in IMR-32 cells; conditions: 150 ppb, 24 hours
Procedure: as §3, with “protocol […]” for “protocol”
(§6) Positive signals on the membrane blots were detected using Amersham's enhanced chemiluminescence (ECL) Western Blotting Prime Detection reagents (GE healthcare Lifescience, Pittsburgh, Pa.). Images of these luminescence signals on the membrane blots were captured using the LI-COR Odyssey Fc Image system (Lincoln, Nebr.). […] Protein band densities in the Western blots were determined using the Li—COR Image studio software or NIH ImageJ software, and then normalized by ACTB protein level in each sample. […]

RCAN1.1 = test: Western blot of RCAN1 (RCAN1.1) protein in IMR-32 cells; conditions: 150 ppb, 24 hours
Procedure: as §3, with “protocol […]” for “protocol”
as §6
The ability of selenium compounds to regulate RCAN1 expression in IMR-32 cells was also assessed. […]

[2] = tested on: phosphorylated FOXO4 (pFOXO4 T28); test: Western blot of phosphorylated FOXO4 in IMR-32 cells; conditions: for phosphorylation of FOXO4 (pFOXO4) levels: 6 hours; for pFOXO4 Threonine 28 (T28) levels: 24 hours
Procedure: as §3, §4, §5

| SMILES | PSEN1 mRNA expression, dose response (PSEN1; 75 ppb and 150 ppb, 24 hours) | PSEN1 mRNA expression (PSEN1; 150 ppb, 6 hours and 24 hours) | NICASTRIN mRNA expression (NICASTRIN; FOXO4KD cells, 75 ppb and 150 ppb, 24 hours) | NICASTRIN mRNA expression, dose-response study (NICASTRIN; IMR-32 cells, 150 ppb, 24 hours) | NICASTRIN mRNA expression (NICASTRIN; IMR-32 cells, 6 hours) | NICASTRIN mRNA expression (NICASTRIN; IMR-32 cells, 24 hours) | NICASTRIN mRNA expression (NICASTRIN; control KD cells, 75 ppb and 150 ppb, 24 hours) | PSEN2 expression (PSEN2) | phosphorylation of Tau at 5400/T403/5404 [1] | phosphorylation of Tau at S396 [1] | ratio of total pTau at both S396 and S400/T403/S404 to total Tau proteins [1] | Total p38 protein levels (p38) | RCAN1.1 protein levels (RCAN1.1) | phosphorylation of FOXO4 (pFOXO4) levels [2] | pFOXO4 Threonine 28 (T28) levels [2] | PSEN1 mRNA expression (PSEN1; 24 hours) |
| --- | --- | --- | --- | --- | --- | --- | --- | --- | --- | --- | --- | --- | --- | --- | --- | --- |
| C[Se]C[C@H]1O[C@@H](n2cnc3c(N)ncnc32)C(O)C1O (stereo in doubt) [Compound C, 5′-deoxy-5′-methylselenoadenosine] | Significant dose-dependent decreases | significantly reduced | not significantly altered | significantly inhibit | trend towards reduced | significant decrease | inhibited | no downregulation | significantly inhibited | not at S396 | significantly attenuated | visibly decreased; also recorded: statistically significant decrease | decrease | decrease | decreased |  |
| C[Se]C[C@H](NC(=O)CC[C@H](N)C(=O)O)C(=O)O [Compound E, γ-L-glutamyl-Se-methyl-L-selenocysteine] |  |  |  |  |  | stimulated |  | no downregulation | significantly down-regulated | significantly down-regulated | trend towards reduced | not observed; also recorded: not Compound E | not Compound E | decrease | decreased | stimulated |
